# Values of other authors as cited in patent publication US20190167749A1, “THE OLEO GEL COMPOSITION AND DELIVERY SYSTEM WITH ACTIVE COMPOUNDS FROM CANNABIS SATIVA AND MENTHA ARVENSIS FOR REDUCTION OF INFLAMMATION AND PAIN IN DEEP TISSUES” (UAB SATIMED, priority 2016, published 2019).
# Where two headings read alike, the source gives them in different places.
# Test system: collagen-induced arthritis
smiles,measurement,setting,value
"C=C(C)[C@@H]1CCC(C)=C[C@H]1c1c(O)cc(CCCCC)cc1O [CBD, cannabidiol]",progression of arthritis,"acute and chronic relapsing CIA, i.p. or oral administration",effectively blocked progression of arthritis
same,dose with optimal effect (bell-shaped dose dependency),i.p.,5 mg/kg per day
same,dose with optimal effect (bell-shaped dose dependency),orally,25 mg/kg per day
